Test system: P. aeruginosa PAO1
Assay: LC-MS/MS whole-cell accumulation assay, P. aeruginosa PAO1
Type: cell-based, Pseudomonas aeruginosa
Details: for PA Accumulation (FA): P. aeruginosa PAO1, accumulation of FA reported (Table 8)
Method: Accumulation Assay. The accumulation assay was performed in triplicate in batches of ten samples, with each batch containing tetracycline or ciprofloxacin as a positive control. P. aeruginosa PAO1, PAO1 A6, PA14, PA14 A40, and PA1280, and E. coli MG1655 were used in these experiments. For each replicate, 2.5 mL (E. coli) or 5 mL (P. aeruginosa) of an overnight culture was diluted into 250 mL of fresh Luria-Bertani broth (Lennox) or Tryptic Soy Broth (TSB) and grown at 37° C. with shaking to an optical density (OD600) of 0.55-0.60. The bacteria were pelleted at 3220 r.c.f. for 10 min at 4° C., and the supernatant was discarded. The pellets were resuspended in 40 mL of phosphate buffered saline (PBS) and pelleted as before, and the supernatant was discarded. The pellets were resuspended in 8.8 mL of fresh PBS and aliquoted into ten, 1.5 mL Eppendorf tubes (875 μL each). The number of colony-forming units (CFUs) was determined by a calibration curve. The samples were equilibrated at 37° C. with shaking for 5 min; compound was added (final concentration=50 μM), and then the samples were incubated at 37° C. with shaking for either 10 min. These time points were short enough to minimize metabolic and growth changes (no changes in OD600 or CFU count observed). After incubation, 800 μL of the cultures was carefully layered on 700 μL of silicone oil (9:1 AR20/Sigma High Temperature, cooled to −78° C.). Bacteria were pelleted through the oil by centrifuging at 13 000 r.c.f. for 2 min at room temperature (with the supernatant remaining above the oil); the supernatant and oil were then removed by pipetting. To lyse the samples, each pellet was dissolved in […] of water, and then, they were subjected to three (E. coli) or four (P. aeruginosa) freeze-thaw cycles of 3 min in liquid nitrogen followed by 3 min in a water bath at 65° C. P. aeruginosa samples were then treated with 50 µM DNase and RNase and incubated at 37° C. for 15 minutes. The lysates were pelleted at 13 000 r.c.f. for 2 min at room temperature, and the supernatant was collected ([…]). The debris was resuspended in 100 μL of methanol and pelleted as before. The supernatants were removed and combined with the previous supernatants collected. Finally, the remaining debris was removed by centrifuging at 20 000 r.c.f. for 10 min at room temperature. Supernatants were analyzed by LC-MS/MS.
Samples were analyzed with the 5500 QTRAP LC/MS/MS system (AB Sciex) with a 1200 series HPLC system (Agilent Technologies) including a degasser, an autosampler, and a binary pump. Liquid chromatography separation was performed on an Agilent SB-Aq column (4.6×50 mm, 5 μm) (Agilent Technologies) with mobile phase A (0.1% formic acid in water) and mobile phase B (0.1% formic acid in acetonitrile). The flow rate was 0.3 mL/min. The linear gradient was as follows: 0-3 min, 100% mobile phase A; 10-15 min, 2% mobile phase A; 15.5-21 min, 100% mobile phase A. The autosampler was set at 5° C. The injection volume was 15 μL. Mass spectra were acquired with both positive electrospray ionization at the ion spray voltage of 5500 V and negative electrospray ionization at the ion spray voltage of −4500 V. The source temperature was 450° C. The curtain gas, ion source gas 1, and ion source gas 2 were 33, 50, and 65, respectively. Multiple reaction monitoring was used to quantify the metabolites. Power analysis was not used to determine the number of replicates. Error bars represent the standard error of the mean of three biological replicates. The statistical significance of the accumulation was determined using a two sample Welch's t test (one-tailed test, assuming unequal variance) relative to the negative controls. All compounds evaluated in the biological assays were >95% pure.
MBN assay. Assays measuring permeabilization by polymyxin B nonapeptide (PMBN) were performed as above, with the addition of 8 μg/mL PMBN immediately before the compound of interest was added.

## CC(=O)O[C@H]1C[C@@]2(C)[C@@H](C[C@@H](O)[C@H]3[C@@]4(C)CC[C@@H](O)[C@@H](C)[C@@H]4CC[C@@]32C)/C1=C(\CCC=C(C)C)C(=O)O/N=C(\N)CNCCCNCCCNCCCN [FA prodrug, (3R, 4S,5S,8S,9S,10S,11R,13R,14S,16S,Z)-17-((Z)-1,14-diamino-22-methyl-17-oxo-16-oxa-4,8,12,15-tetraazatricosa-14,21-dien-18-ylidene)-3,11-dihydroxy-4,8,10,14-tetramethylhexadecahydro-1H-cyclopenta[a]phenanthren-16-yl acetate]
  PA Accumulation (FA): 3396 ± 122 nmol/1012 CFUs

## CC(=O)O[C@H]1C[C@@]2(C)[C@@H](C[C@@H](O)[C@H]3[C@@]4(C)CC[C@@H](O)[C@@H](C)[C@@H]4CC[C@@]32C)/C1=C(\CCC=C(C)C)C(=O)O [FA, Fusidic acid]
FIG. 1a / FIG. 5
  accumulation in PAO1 (in words): does not accumulate
  PA Accumulation (FA): 80 ± 7 nmol/1012 CFUs
Treatment with PMBN, FIG. 1b
  change of accumulation upon membrane permeabilization: significant increase in accumulation
